Series [1] concerns the target T1, pY1068 EGFR L858R-T790M-C797S (Homo sapiens, UniProt P00533, C797S/L858R/T790M).
T1 construct: generated using CRISPR technology to introduce the additional C797S mutation by Horizon Discovery; host or cells: NCI-H1975+CS (CRISPR knock-in of C797S)
The series is described as follows: Phospho-EGFR (pY1068) inhibition HTRF, NCI-H1975+CS. The conditions noted are these: 6 hours, read-out: pEGFR IC50. The class given is cell-based. Put shortly:
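FRET signal from HTRF kits measured phospho-EGFR at pY1068 or total EGFR after 6 h treatment at 37 °C. Compounds ran as 11-point half-log dilutions from 10 μM in duplicate, in cells in phenol red-free RPMI with 10% FBS. Concentrations giving 50% inhibition or degradation were reported as IC50 or DC50.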

Series [2] can be described thus: Tolerability / body weight change on oral dosing in tumor-bearing mice. Type of series: in vivo. The procedure:
Compound 1 was dosed at 20, 50, or 100 mg/kg/day and was formulated in PEG400 (20% v/v)+80% v/v SBECD (25% w/v) in ddH2O. […] Body weight and MTV were measured on a 2× weekly schedule. Statistical analysis was performed using a one-way ANOVA. Data are expressed as MTV±SEM.
Compound 1 and Compound 2 were dosed at 20, 50, or 100 mg/kg/day and was formulated in PEG400 (20% v/v)+80% v/v SBECD (25% w/v) in ddH2O. […] Body weight and MTV were measured on a 2× weekly schedule. Statistical analysis was performed using a one-way ANOVA followed by Dunnett's multiple comparison test. Data are expressed as MTV±SEM.
2×10^5 luciferase-expressing NCI-H1975-luc tumor cells suspended in 2 μL RPMI-1640 media were injected into the right forebrain of female BALB/c nude mice. Tumor growth was monitored using imaging analysis. Mice were injected intraperitoneally with 15 mg/mL of D-luciferin and anesthetized with 1-2% isoflurane inhalation. 10 minutes post luciferin injection, mice were imaged using IVIS Lumina III (Perkin Elmer) and total bioluminescence signal (BLI, photons/s) was measured in a region of interest (ROI). BLI from ROI were quantified and used as an indicator of tumor burden. […] Body weight and MTV were measured on a 2× weekly schedule. Statistical analysis was calculated using the Mann-Whitney U test. Data are expressed as bioluminescent signal (photons/s). […]

T1 sequence (P00533 25-1210 T790M/C797S/L858R): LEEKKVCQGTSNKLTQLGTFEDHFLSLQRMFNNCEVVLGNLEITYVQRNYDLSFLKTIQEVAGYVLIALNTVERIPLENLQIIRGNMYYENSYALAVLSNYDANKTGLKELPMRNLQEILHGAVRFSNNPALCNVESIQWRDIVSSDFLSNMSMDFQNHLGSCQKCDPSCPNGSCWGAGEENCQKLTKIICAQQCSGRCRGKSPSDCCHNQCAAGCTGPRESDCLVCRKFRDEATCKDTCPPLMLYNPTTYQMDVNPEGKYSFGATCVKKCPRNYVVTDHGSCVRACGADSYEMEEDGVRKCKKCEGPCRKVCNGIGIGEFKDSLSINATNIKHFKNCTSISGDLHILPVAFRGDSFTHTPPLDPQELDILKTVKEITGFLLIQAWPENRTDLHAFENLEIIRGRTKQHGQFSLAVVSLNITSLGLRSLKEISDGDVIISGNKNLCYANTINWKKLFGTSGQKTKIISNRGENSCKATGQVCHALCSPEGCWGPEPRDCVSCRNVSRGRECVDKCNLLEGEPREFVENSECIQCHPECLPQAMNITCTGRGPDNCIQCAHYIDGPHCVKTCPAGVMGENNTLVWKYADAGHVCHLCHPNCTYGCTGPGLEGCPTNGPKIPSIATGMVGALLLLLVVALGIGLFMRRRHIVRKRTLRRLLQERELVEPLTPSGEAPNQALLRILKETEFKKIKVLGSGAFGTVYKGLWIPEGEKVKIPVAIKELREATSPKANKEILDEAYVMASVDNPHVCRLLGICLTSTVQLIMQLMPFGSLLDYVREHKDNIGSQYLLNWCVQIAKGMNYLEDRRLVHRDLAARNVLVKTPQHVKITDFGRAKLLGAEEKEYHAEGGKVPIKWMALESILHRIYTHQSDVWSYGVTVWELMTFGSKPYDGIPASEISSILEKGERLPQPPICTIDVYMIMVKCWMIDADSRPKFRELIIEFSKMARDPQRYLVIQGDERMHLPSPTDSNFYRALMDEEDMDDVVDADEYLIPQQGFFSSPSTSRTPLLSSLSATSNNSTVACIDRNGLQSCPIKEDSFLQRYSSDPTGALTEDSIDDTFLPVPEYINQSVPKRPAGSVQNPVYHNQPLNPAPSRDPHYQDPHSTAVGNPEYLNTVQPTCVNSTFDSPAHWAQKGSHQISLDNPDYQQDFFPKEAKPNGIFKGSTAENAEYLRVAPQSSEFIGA

As for `O=C1CC[C@H](Nc2ccc(N3CCC(O)(CC(=O)N4CC5(C4)CN(c4ccc(-c6cc(F)c7c(c6)C(=O)N(C(C(=O)Nc6nccs6)c6ncn8c6CCC8)C7)cc4)C5)CC3)c(F)c2)C(=O)N1` (stereo partly drawn) [Compound 1, 2-(6,7-dihydro-5H-pyrrolo[1,2-c]imidazol-1-yl)-2-[6-[4-[2-[2-[1-[4-[[(3S)-2,6-dioxo-3-piperidyl]amino]-2-fluoro-phenyl]-4-hydroxy-4-piperidyl]acetyl]-2,6-diazaspiro[3.3]heptan-6-yl]phenyl]-4-fluoro-1-oxo-isoindolin-2-yl]-N-thiazol-2-yl-acetamide], in series [1], the IC50 came to 10 nM. Further, the “tolerability of oral dosing” value in series [2] is listed as “well tolerated”.

As to `Cn1nc(N2CCC(=O)NC2=O)c2ccc([C@H]3CCN(CC(=O)N4CC5(C4)CN(c4ccc(-c6cc(F)c7c(c6)C(=O)N(C(C(=O)Nc6nccs6)c6ncn8c6CCC8)C7)cc4)C5)CC3(F)F)cc21` (stereo partly drawn) [Compound 2, 2-(6,7-dihydro-5H-pyrrolo[1,2-c]imidazol-1-yl)-2-[6-[4-[2-[2-[(4R)-4-[3-(2,4-dioxohexahydropyrimidin-1-yl)-1-methyl-indazol-6-yl]-3,3-difluoro-1-piperidyl]acetyl]-2,6-diazaspiro[3.3]heptan-6-yl]phenyl]-4-fluoro-1-oxo-isoindolin-2-yl]-N-thiazol-2-yl-acetamide], in series [1], the IC50 came to 29 nM. For the same compound, in series [2], the “tolerability of oral dosing” value is “well tolerated”.

The values above are taken from US20240158418A1 (C4 Therapeutics, Inc., priority 2021, published 2024).
